According to patent US20260285850A1, “SUBSTITUTED OXAZOLIDINONES AND IMIDAZOLINONES AS HERBICIDES” (FMC CORPORATION, priority 2023, published 2026):

Legend:
Format in all cases: in vivo
[1] = system: corn (Zea mays); assay: Test A preemergence soil spray, visual injury rating 0-100; conditions: 10 days, 0 = no effect, 100 = complete control
How it was run: (§1)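 Loam-sand pots got test material in surfactant-containing solvent, either as a directed soil spray before emergence or on plants at the one- to two-leaf stage. Visual injury (0-100) was read after ten greenhouse days.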

[2] = system: oat, wild (wild oat, Avena fatua); assay: as above; conditions: 10 days, 0 = no effect, 100 = complete control
How it was run: as §1

[3] = system: ragweed (common ragweed, Ambrosia artemisiifolia); assay: as above; conditions: 10 days, 0 = no effect, 100 = complete control
How it was run: as §1

[4] = system: green foxtail (Setaria viridis); assay: as above; conditions: 10 days, 0 = no effect, 100 = complete control
How it was run: as §1

[5] = system: barnyardgrass (Echinochloa crus-galli); assay: as above; conditions: 10 days, 0 = no effect, 100 = complete control
How it was run: as §1

[6] = system: soybean (Glycine max); assay: as above; conditions: 10 days, 0 = no effect, 100 = complete control
How it was run: as §1

[7] = system: blackgrass (Alopecurus myosuroides); assay: as above; conditions: 10 days, 0 = no effect, 100 = complete control
How it was run: as §1

[8] = system: wheat (Triticum aestivum); assay: as above; conditions: 10 days, 0 = no effect, 100 = complete control
How it was run: as §1

[9] = system: kochia (Bassia scoparia); assay: as above; conditions: 10 days, 0 = no effect, 100 = complete control
How it was run: as §1

[10] = system: palmer (palmer amaranth, palmer pigweed, Amaranthus palmeri); assay: as above; conditions: 10 days, 0 = no effect, 100 = complete control
How it was run: as §1

[11] = system: ryegrass, Italian (italian ryegrass, Lolium multiflorum); assay: as above; conditions: 10 days, 0 = no effect, 100 = complete control
How it was run: as §1

[12] = system: galium (catchweed bedstraw, Galium aparine); assay: Test A postemergence application, visual injury rating 0-100; conditions: 10 days
How it was run: as §1

[13] = system: corn (Zea mays); assay: as above; conditions: 10 days
How it was run: as §1

[14] = system: oat, wild (wild oat, Avena fatua); assay: as above; conditions: 10 days
How it was run: as §1

[15] = system: ragweed (common ragweed, Ambrosia artemisiifolia); assay: as above; conditions: 10 days
How it was run: as §1

[16] = system: green foxtail (Setaria viridis); assay: as above; conditions: 10 days
How it was run: as §1

[17] = system: barnyardgrass (Echinochloa crus-galli); assay: as above; conditions: 10 days
How it was run: as §1

[18] = system: horseweed (Erigeron canadensis); assay: as above; conditions: 10 days
How it was run: as §1

[19] = system: soybean (Glycine max); assay: as above; conditions: 10 days
How it was run: as §1

[20] = system: blackgrass (Alopecurus myosuroides); assay: as above; conditions: 10 days
How it was run: as §1

[21] = system: wheat (Triticum aestivum); assay: as above; conditions: 10 days
How it was run: as §1

[22] = system: kochia (Bassia scoparia); assay: as above; conditions: 10 days
How it was run: as §1

[23] = system: palmer (palmer amaranth, palmer pigweed, Amaranthus palmeri); assay: as above; conditions: 10 days
How it was run: as §1

[24] = system: ryegrass, Italian (italian ryegrass, Lolium multiflorum); assay: as above; conditions: 10 days
How it was run: as §1

[25] = system: rice (Oryza sativa); assay: Test B flooded paddy test, visual plant response rating 0-100; conditions: 250 g ai/ha, Flood, applied to paddy water, evaluated after 13 days
How it was run: (§2)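 Compounds applied to standing paddy water (3 cm above soil, maintained for the test duration) on 2-leaf-stage plants; visual rating vs controls at 13 days, greenhouse.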

[26] = system: ducksalad (Heteranthera limosa); assay: as above; conditions: 250 g ai/ha, Flood, applied to paddy water, evaluated after 13 days
How it was run: as §2

[27] = system: barnyardgrass (Echinochloa crusgalli); assay: as above; conditions: 250 g ai/ha, Flood, applied to paddy water, evaluated after 13 days
How it was run: as §2

[28] = system: sedge, umbrella (small-flower umbrella sedge, Cyperus difformis); assay: as above; conditions: 250 g ai/ha, Flood, applied to paddy water, evaluated after 13 days
How it was run: as §2

[29] = 31 g ai/ha, postemergence, 0 = no effect, 100 = complete control
[30] = Postemergence, 125 g ai/ha, 0 is no effect, 100 is complete control

COC(=O)C1=CCC(NC(=O)C2(C)CN(c3cc(F)cc(F)c3)C(=O)O2)C1 (single isomer, unassigned) [Compound 20]
30: Ragweed plant response rating (0-100) ([3]; 31 g ai/ha) | Ragweed plant response rating (0 to 100 scale) [15, 30] | Amaranth, Palmer / Pigweed, Palmer plant response rating (0 to 100 scale) [23, 30]
100: Corn plant response rating (0 to 100 scale) [13, 30]
60: Soybean plant response rating (0 to 100 scale) ([6]; 125 g ai/ha) | Oat, Wild plant response rating (0 to 100 scale) [14, 30] | Blackgrass plant response rating (0 to 100 scale) [20, 30]
40: Corn plant response rating (0-100) [13, 29]
20: Soybean plant response rating (0-100) ([6]; 31 g ai/ha) | Wheat plant response rating (0 to 100 scale) ([8]; 125 g ai/ha) | Ryegrass, Italian plant response rating (0 to 100 scale) ([11]; 125 g ai/ha) | Galium plant response rating (0-100) [12, 29] | Oat, Wild plant response rating (0-100) [14, 29] | Foxtail, Green plant response rating (0-100) [16, 29]
50: Soybean plant response rating (0-100) [19, 29] | Kochia plant response rating (0 to 100 scale) [22, 30]
90: Barnyardgrass plant response rating (0 to 100 scale) [17, 30] | Soybean plant response rating (0 to 100 scale) [19, 30]
80: Galium plant response rating (0 to 100 scale) [12, 30] | Foxtail, Green plant response rating (0 to 100 scale) [16, 30] | Wheat plant response rating (0 to 100 scale) [21, 30] | Ryegrass, Italian plant response rating (0 to 100 scale) [24, 30]
0: Corn plant response rating (0-100) ([1]; 31 g ai/ha) | Corn plant response rating (0 to 100 scale) ([1]; 125 g ai/ha) | Oat, Wild plant response rating (0-100) ([2]; 31 g ai/ha) | Oat, Wild plant response rating (0 to 100 scale) ([2]; 125 g ai/ha) | Ragweed plant response rating (0 to 100 scale) ([3]; 125 g ai/ha) | Foxtail, Green plant response rating (0-100) ([4]; 31 g ai/ha) | Foxtail, Green plant response rating (0 to 100 scale) ([4]; 125 g ai/ha) | Barnyardgrass plant response rating (0-100) ([5]; 31 g ai/ha) | Barnyardgrass plant response rating (0 to 100 scale) ([5]; 125 g ai/ha) | Blackgrass plant response rating (0-100) ([7]; 31 g ai/ha) | Blackgrass plant response rating (0 to 100 scale) ([7]; 125 g ai/ha) | Wheat plant response rating (0-100) ([8]; 31 g ai/ha) | Kochia plant response rating (0-100) ([9]; 31 g ai/ha) | Kochia plant response rating (0 to 100 scale) ([9]; 125 g ai/ha) | Amaranth, Palmer plant response rating (0-100) ([10]; 31 g ai/ha) | Amaranth, Palmer plant response rating (0 to 100 scale) ([10]; 125 g ai/ha) | Ryegrass, Italian plant response rating (0-100) ([11]; 31 g ai/ha) | Ragweed plant response rating (0-100) [15, 29] | Barnyardgrass plant response rating (0-100) [17, 29] | Horseweed plant response rating (0-100) [18, 29] | Horseweed plant response rating (0 to 100 scale) [18, 30] | Blackgrass plant response rating (0-100) [20, 29] | Wheat plant response rating (0-100) [21, 29] | Kochia plant response rating (0-100) [22, 29] | Amaranth, Palmer plant response rating (0-100) [23, 29] | Ryegrass, Italian plant response rating (0-100) [24, 29] | Plant response rating, Rice (0 to 100 scale, 0 is no effect and 100 is complete control) [25] | Plant response rating, Ducksalad (0 to 100 scale, 0 is no effect and 100 is complete control) [26] | Plant response rating, Barnyardgrass (0 to 100 scale, 0 is no effect and 100 is complete control) [27] | Plant response rating, Sedge, Umbrella (0 to 100 scale, 0 is no effect and 100 is complete control) [28]
